Species: Rattus norvegicus
Assay: DrugMatrix - Regimen: Daily Repeat
Assay type: toxicity, organism-based, Sprague-Dawley
Set-up: regimen Daily Repeat, gender Male, age 6-8 weeks
Conditions: in vivo, po, route oral GAVAGE, […]; for ABSOLUTE BASOPHIL / ABSOLUTE EOSINOPHIL / ABSOLUTE LYMPHOCYTE / ABSOLUTE MONOCYTE / ABSOLUTE SEGMENTED NEUTROPHIL / BASOPHIL / EOSINOPHIL / ERYTHROCYTE COUNT / HEMATOCRIT / HEMOGLOBIN / LEUKOCYTE COUNT / LYMPHOCYTE / MEAN CORPUSCULAR HEMOGLOBIN / MEAN CORPUSCULAR HEMOGLOBIN CONCENTRATION / MEAN CORPUSCULAR VOLUME / MONOCYTE / NEUTROPHIL / NUCLEATED RED BLOOD CELLS / PLATELET COUNT: tissue Blood; for ALANINE AMINOTRANSFERASE / ALBUMIN / ALKALINE PHOSPHATASE / ASPARTATE AMINOTRANSFERASE / BLOOD UREA NITROGEN / CARBON DIOXIDE / CHLORIDE / CHOLESTEROL / CREATINE PHOSPHOKINASE / CREATININE / GLUCOSE / LACTATE DEHYDROGENASE / LIPASE / PHOSPHORUS / POTASSIUM / SODIUM / TOTAL BILIRUBIN / TOTAL PROTEIN / URIC ACID: tissue Plasma
[1] = 3 mg/kg, 72 h, dose level Low, time 3 day
[2] = 3 mg/kg, 120 h, dose level Low, time 5 day
[3] = 250 mg/kg, 72 h, dose level High, time 3 day
[4] = 250 mg/kg, 120 h, dose level High, time 5 day

Structure (SMILES): N#Cc1ccc(C(c2ccc(C#N)cc2)n2cncn2)cc1 [LETROZOLE]
- ABSOLUTE BASOPHIL [1]: 0 CELLS/uL
- ABSOLUTE EOSINOPHIL [1]: 184 CELLS/uL
- ABSOLUTE LYMPHOCYTE [1]: 10672.33 CELLS/uL
- ABSOLUTE MONOCYTE [1]: 0 CELLS/uL
- ABSOLUTE SEGMENTED NEUTROPHIL [1]: 1877 CELLS/uL
- BASOPHIL [1]: 0%
- EOSINOPHIL [1]: 0.67%
- ERYTHROCYTE COUNT [1]: 4.51 x10E6/uL
- HEMATOCRIT [1]: 28.03%
- HEMOGLOBIN [1]: 11.33 G/DL
- LEUKOCYTE COUNT [1]: 12.73 x10E3/uL
- LYMPHOCYTE [1]: 88.67%
- MEAN CORPUSCULAR HEMOGLOBIN [1]: 25.07 pg
- MEAN CORPUSCULAR HEMOGLOBIN CONCENTRATION [1]: 40.37 G/DL
- MEAN CORPUSCULAR VOLUME [1]: 62.1 fL
- MONOCYTE [1]: 0%
- NEUTROPHIL [1]: 10.67%
- NUCLEATED RED BLOOD CELLS [1]: 0 /100WBC
- PLATELET COUNT [1]: 541.33 x10E3/uL
- ALANINE AMINOTRANSFERASE [1]: 85.67 u/L
- ALBUMIN [1]: 4.07 G/DL
- ALKALINE PHOSPHATASE [1]: 351.67 u/L
- ASPARTATE AMINOTRANSFERASE [1]: 114.67 u/L
- BLOOD UREA NITROGEN [1]: 15 mg/dL
- CARBON DIOXIDE [1]: 26.67 mmol/L
- CHLORIDE [1]: 105 MEQ/L
- CHOLESTEROL [1]: 72.33 mg/dL
- CREATINE PHOSPHOKINASE [1]: 577.67 u/L
- CREATININE [1]: 0.17 mg/dL
- GLUCOSE [1]: 196.67 mg/dL
- LACTATE DEHYDROGENASE [1]: 171.67 u/L
- LIPASE [1]: 8.33 u/L
- PHOSPHORUS [1]: 13.4 mg/dL
- POTASSIUM [1]: 5.91 MEQ/L
- SODIUM [1]: 144 MEQ/L
- TOTAL BILIRUBIN [1]: 0.2 mg/dL
- TOTAL PROTEIN [1]: 5.4 G/DL
- URIC ACID [1]: 1.37 mg/dL
- ABSOLUTE BASOPHIL [2]: 0 CELLS/uL
- ABSOLUTE EOSINOPHIL [2]: 0 CELLS/uL
- ABSOLUTE LYMPHOCYTE [2]: 13516.33 CELLS/uL
- ABSOLUTE MONOCYTE [2]: 50.67 CELLS/uL
- ABSOLUTE SEGMENTED NEUTROPHIL [2]: 1033 CELLS/uL
- BASOPHIL [2]: 0%
- EOSINOPHIL [2]: 0%
- ERYTHROCYTE COUNT [2]: 5.59 x10E6/uL
- HEMATOCRIT [2]: 35.97%
- HEMOGLOBIN [2]: 14.1 G/DL
- LEUKOCYTE COUNT [2]: 14.6 x10E3/uL
- LYMPHOCYTE [2]: 92.67%
- MEAN CORPUSCULAR HEMOGLOBIN [2]: 25.23 pg
- MEAN CORPUSCULAR HEMOGLOBIN CONCENTRATION [2]: 39.17 G/DL
- MEAN CORPUSCULAR VOLUME [2]: 64.33 fL
- MONOCYTE [2]: 0.33%
- NEUTROPHIL [2]: 7%
- NUCLEATED RED BLOOD CELLS [2]: 0 /100WBC
- PLATELET COUNT [2]: 1165 x10E3/uL
- ALANINE AMINOTRANSFERASE [2]: 55 u/L
- ALBUMIN [2]: 4.23 G/DL
- ALKALINE PHOSPHATASE [2]: 407 u/L
- ASPARTATE AMINOTRANSFERASE [2]: 79.33 u/L
- BLOOD UREA NITROGEN [2]: 18 mg/dL
- CARBON DIOXIDE [2]: 27.67 mmol/L
- CHLORIDE [2]: 103 MEQ/L
- CHOLESTEROL [2]: 69.33 mg/dL
- CREATINE PHOSPHOKINASE [2]: 252.67 u/L
- CREATININE [2]: 0.22 mg/dL
- GLUCOSE [2]: 176 mg/dL
- LACTATE DEHYDROGENASE [2]: 155.33 u/L
- LIPASE [2]: 11.33 u/L
- PHOSPHORUS [2]: 11.3 mg/dL
- POTASSIUM [2]: 6.08 MEQ/L
- SODIUM [2]: 143.2 MEQ/L
- TOTAL BILIRUBIN [2]: 0.2 mg/dL
- TOTAL PROTEIN [2]: 5.8 G/DL
- URIC ACID [2]: 1.3 mg/dL
- ABSOLUTE BASOPHIL [3]: 0 CELLS/uL
- ABSOLUTE EOSINOPHIL [3]: 0 CELLS/uL
- ABSOLUTE LYMPHOCYTE [3]: 16113.33 CELLS/uL
- ABSOLUTE MONOCYTE [3]: 104 CELLS/uL
- ABSOLUTE SEGMENTED NEUTROPHIL [3]: 1216 CELLS/uL
- BASOPHIL [3]: 0%
- EOSINOPHIL [3]: 0%
- ERYTHROCYTE COUNT [3]: 5.67 x10E6/uL
- HEMATOCRIT [3]: 35.07%
- HEMOGLOBIN [3]: 14.07 G/DL
- LEUKOCYTE COUNT [3]: 17.43 x10E3/uL
- LYMPHOCYTE [3]: 92%
- MEAN CORPUSCULAR HEMOGLOBIN [3]: 24.8 pg
- MEAN CORPUSCULAR HEMOGLOBIN CONCENTRATION [3]: 40.1 G/DL
- MEAN CORPUSCULAR VOLUME [3]: 61.83 fL
- MONOCYTE [3]: 0.67%
- NEUTROPHIL [3]: 7.33%
- NUCLEATED RED BLOOD CELLS [3]: 0 /100WBC
- PLATELET COUNT [3]: 1266.33 x10E3/uL
- ALANINE AMINOTRANSFERASE [3]: 69 u/L
- ALBUMIN [3]: 3.97 G/DL
- ALKALINE PHOSPHATASE [3]: 487 u/L
- ASPARTATE AMINOTRANSFERASE [3]: 117 u/L
- BLOOD UREA NITROGEN [3]: 13 mg/dL
- CARBON DIOXIDE [3]: 29 mmol/L
- CHLORIDE [3]: 102.33 MEQ/L
- CHOLESTEROL [3]: 68.33 mg/dL
- CREATINE PHOSPHOKINASE [3]: 365.33 u/L
- CREATININE [3]: 0.24 mg/dL
- GLUCOSE [3]: 140.67 mg/dL
- LACTATE DEHYDROGENASE [3]: 544.67 u/L
- LIPASE [3]: 12.33 u/L
- PHOSPHORUS [3]: 11.13 mg/dL
- POTASSIUM [3]: 5.99 MEQ/L
- SODIUM [3]: 142.27 MEQ/L
- TOTAL BILIRUBIN [3]: 0.23 mg/dL
- TOTAL PROTEIN [3]: 5.47 G/DL
- URIC ACID [3]: 1.4 mg/dL
- ABSOLUTE BASOPHIL [4]: 0 CELLS/uL
- ABSOLUTE EOSINOPHIL [4]: 0 CELLS/uL
- ABSOLUTE LYMPHOCYTE [4]: 11610.33 CELLS/uL
- ABSOLUTE MONOCYTE [4]: 237.67 CELLS/uL
- ABSOLUTE SEGMENTED NEUTROPHIL [4]: 1485.33 CELLS/uL
- BASOPHIL [4]: 0%
- EOSINOPHIL [4]: 0%
- ERYTHROCYTE COUNT [4]: 6.3 x10E6/uL
- HEMATOCRIT [4]: 38.7%
- HEMOGLOBIN [4]: 15.17 G/DL
- LEUKOCYTE COUNT [4]: 13.33 x10E3/uL
- LYMPHOCYTE [4]: 87.33%
- MEAN CORPUSCULAR HEMOGLOBIN [4]: 24.13 pg
- MEAN CORPUSCULAR HEMOGLOBIN CONCENTRATION [4]: 39.23 G/DL
- MEAN CORPUSCULAR VOLUME [4]: 61.5 fL
- MONOCYTE [4]: 1.67%
- NEUTROPHIL [4]: 11%
- NUCLEATED RED BLOOD CELLS [4]: 0 /100WBC
- PLATELET COUNT [4]: 1093.67 x10E3/uL
- ALANINE AMINOTRANSFERASE [4]: 36.67 u/L
- ALBUMIN [4]: 4.27 G/DL
- ALKALINE PHOSPHATASE [4]: 295.33 u/L
- ASPARTATE AMINOTRANSFERASE [4]: 110.67 u/L
- BLOOD UREA NITROGEN [4]: 15.33 mg/dL
- CARBON DIOXIDE [4]: 28.67 mmol/L
- CHLORIDE [4]: 104.67 MEQ/L
- CHOLESTEROL [4]: 55.67 mg/dL
- CREATINE PHOSPHOKINASE [4]: 254 u/L
- CREATININE [4]: 0.21 mg/dL
- GLUCOSE [4]: 151.33 mg/dL
- LACTATE DEHYDROGENASE [4]: 321.67 u/L
- LIPASE [4]: 10.67 u/L
- PHOSPHORUS [4]: 9.9 mg/dL
- POTASSIUM [4]: 4.59 MEQ/L
- SODIUM [4]: 146.27 MEQ/L
- TOTAL BILIRUBIN [4]: 0.1 mg/dL
- TOTAL PROTEIN [4]: 5.77 G/DL
- URIC ACID [4]: 1.13 mg/dL

Source: ChEMBL document CHEMBL3885881, “DrugMatrix”
